Source: US10105357B2, “Indication of antibiotic drugs for preparation of cancer inhibition pharmaceutical composition” (LAUNX BIOMEDICAL CO., LTD., priority 2014, dated 2018)
Where two headings read alike, the source gives them in different places.

How the values were obtained:
Type in all cases: cell-based, human
[1] = tested on: SAS (Tongue squamous cell carcinoma); assay: Cell viability analysis, tongue cancer SAS; conditions: Homo sapiens, 72 h, read-out: The results of antibiotic drug inhibiting cancer cell lines (cell viability analysis), SAS
[2] = tested on: HepG2 (Hepatocellular Carcinoma); assay: Cell viability analysis, hepatic cancer HepG2; conditions: Homo sapiens, HepG2, 72 h
[3] = tested on: HL-60 (Acute Promyelocytic Leukemia); assay: Cell viability analysis, leukemia HL-60; conditions: Homo sapiens, HL-60, 72 h, read-out: cell viability (survival rate), HL-60, drug 10 μM, 72 hours, WST-1, OD450 nm
[4] = tested on: 786-O (Renal adenocarcinoma); assay: Cell viability analysis, renal cancer 786-O; conditions: Homo sapiens, 786-0, 72 h, read-out: The results of antibiotic drug inhibiting cancer cell lines (cell viability analysis), 786-O
[5] = tested on: A549 (Lung Adenocarcinoma); assay: Cell viability analysis, lung cancer A549; conditions: Homo sapiens, A549, 72 h
[6] = tested on: TSGH-8301 (Urinary Bladder Carcinoma); assay: Cell viability analysis, bladder cancer TSGH-8301; conditions: Homo sapiens, 72 h
[7] = tested on: Hep3B (hepatocellular carcinoma); assay: Cell viability analysis, hepatic cancer Hep3B; conditions: Homo sapiens, Hep3B, 72 h, read-out: The results of antibiotic drug inhibiting cancer cell lines (cell viability analysis), Hep3B
TOV-21G = assay: Cell viability analysis, ovarian cancer TOV-21G; conditions: Homo sapiens, TOV21G, 72 h, read-out: The results of antibiotic drug inhibiting cancer cell lines (cell viability analysis), TOV-21G
[8] = tested on: BCC (basal cell carcinoma); assay: Cell viability analysis, skin cancer BCC; conditions: Homo sapiens, 72 h, read-out: The results of antibiotic drug inhibiting cancer cell lines (cell viability analysis), BCC
[9] = tested on: MCF7 (Mammary Gland, Adenocarcinoma); assay: Cell viability analysis, breast cancer MCF7; conditions: Homo sapiens, MCF7, 72 h
BxPC-3 = assay: Cell viability analysis, pancreatic cancer BxPC-3; conditions: Homo sapiens, BXPC-3, 72 h, read-out: The results of antibiotic drug inhibiting cancer cell lines (cell viability analysis), BxPC-3
[10] = tested on: C-33A (Cervical carcinoma); assay: Cell viability analysis, cervical cancer C-33A; conditions: Homo sapiens, C-33-A, 72 h, read-out: The results of antibiotic drug inhibiting cancer cell lines (cell viability analysis), C-33A
[11] = tested on: HeLa (Cervix Adenocarcinoma); assay: Cell viability analysis, cervical cancer HeLa; conditions: Homo sapiens, HeLa, 72 h
[12] = tested on: LoVo (Colorectal Adenocarcinoma); assay: Cell viability analysis, colon cancer LoVo; conditions: Homo sapiens, LoVo, 72 h
[13] = tested on: AGS (Gastric Adenocarcinoma); assay: Cell viability analysis, gastric cancer AGS; conditions: Homo sapiens, 72 h
[14] = tested on: HI650 (Lung Adenocarcinoma); assay: Cell viability analysis, lung cancer HI650; conditions: Homo sapiens, NCI-H1650, 72 h
U-2OS = assay: Cell viability analysis, osteosarcoma U-2OS; conditions: Homo sapiens, U2OS, 72 h, read-out: The results of antibiotic drug inhibiting cancer cell lines (cell viability analysis), U2OS
[15] = tested on: PC3 (p53−) (Prostate Adenocarcinoma); assay: Cell viability analysis, prostate cancer PC3; conditions: Homo sapiens, 72 h
T24 = assay: Cell viability analysis, bladder cancer T24; conditions: Homo sapiens, T-24, 72 h, read-out: The results of antibiotic drug inhibiting cancer cell lines (cell viability analysis), T24
AsPC-1 = assay: Cell viability analysis, pancreatic cancer AsPC-1; conditions: Homo sapiens, ASPC1, 72 h, read-out: The results of antibiotic drug inhibiting cancer cell lines (cell viability analysis), AsPC-1
[16] = tested on: MKN-45 (Gastric Adenocarcinoma); assay: Cell viability analysis, gastric cancer MKN-45; conditions: Homo sapiens, MKN-45, 72 h
NIH: OVCAR-3 = assay: Cell viability analysis, ovarian cancer NIH: OVCAR-3; conditions: Homo sapiens, OVCAR-3, 72 h, read-out: The results of antibiotic drug inhibiting cancer cell lines (cell viability analysis), NIH-OVCAR-3
[17] = tested on: A375 (Amelanotic Melanoma); assay: Cell viability analysis, skin cancer A375; conditions: Homo sapiens, A-375, 72 h
cancer cell lines = assay: Cell viability analysis (WST-1) on cancer cell lines; conditions: drug 10 μM, 72 hours, WST-1; Table 3
[18] = tested on: MDA-MB-231 (Mammary Gland, Adenocarcinoma); assay: Cell viability analysis, breast cancer MDA-MB-231; conditions: Homo sapiens, MDA-MB-231, 72 h, read-out: The results of antibiotic drug inhibiting cancer cell lines (cell viability analysis), MDA-MB231
[19] = read-out: The results of antibiotic drug inhibiting cancer cell lines (cell viability analysis), HepG2, HepG2, repeated experiment
[20] = read-out: cell viability (survival rate), HepG2, drug 10 μM, 72 hours, WST-1, OD450 nm
[21] = read-out: The results of antibiotic drug inhibiting cancer cell lines (cell viability analysis), A549, A549, repeated experiment
[22] = read-out: cell viability (survival rate), A549, drug 10 μM, 72 hours, WST-1, OD450 nm
[23] = read-out: The results of antibiotic drug inhibiting cancer cell lines (cell viability analysis), TSGH-8301, TSGH-8301, repeated experiment
[24] = read-out: cell viability (survival rate), TSGH, drug 10 μM, 72 hours, WST-1, OD450 nm
[25] = read-out: The results of antibiotic drug inhibiting cancer cell lines (cell viability analysis), MCF-7, MCF-7, repeated experiment
[26] = read-out: cell viability (survival rate), MCF7, drug 10 μM, 72 hours, WST-1, OD450 nm
[27] = read-out: The results of antibiotic drug inhibiting cancer cell lines (cell viability analysis), HeLa, repeated experiment
[28] = read-out: cell viability (survival rate), HeLa, drug 10 μM, 72 hours, WST-1, OD450 nm
[29] = read-out: The results of antibiotic drug inhibiting cancer cell lines (cell viability analysis), AGS, repeated experiment
[30] = read-out: cell viability (survival rate), AGS, drug 10 μM, 72 hours, WST-1, OD450 nm
[31] = read-out: The results of antibiotic drug inhibiting cancer cell lines (cell viability analysis), H1650, H1650, repeated experiment
[32] = read-out: The results of antibiotic drug inhibiting cancer cell lines (cell viability analysis), PC-3, PC-3, repeated experiment
[33] = read-out: cell viability (survival rate), PC3, drug 10 μM, 72 hours, WST-1, OD450 nm
[34] = read-out: The results of antibiotic drug inhibiting cancer cell lines (cell viability analysis), MKN-45, MKN-45, repeated experiment
[35] = read-out: cell viability (survival rate), MKN-45, drug 10 μM, 72 hours, WST-1, OD450 nm
[36] = read-out: The results of antibiotic drug inhibiting cancer cell lines (cell viability analysis), A375, A375, repeated experiment
[37] = read-out: cell viability (survival rate), A375, drug 10 μM, 72 hours, WST-1, OD450 nm

With `CO[C@H]1/C=C/O[C@@]2(C)Oc3c(C)c(O)c4c(O)c(c(/C=N/N5CCN(C6CCCC6)CC5)c(O)c4c3C2=O)NC(=O)/C(C)=C\C=C\[C@H](C)[C@H](O)[C@@H](C)[C@@H](O)[C@@H](C)[C@H](OC(C)=O)[C@@H]1C` [Rifapentine (Priftin), Rifapentine] the viability at 10 µM [1] was 85.4%, the viability at 10 µM [2, 19] was 112% and the viability at 10 µM [2, 20] was 102%. The viability at 10 µM [3] was 99.1%, the viability at 10 µM [4] was 85.9% and the viability at 10 µM [5, 21] was 87.4%. For the same compound, the viability at 10 µM [5, 22] was 47.4%, the viability at 10 µM [6, 23] was 94.7% and the viability at 10 µM [6, 24] was 99.2%. It also gave a viability at 10 µM [7] of 110%, a viability at 10 µM (TOV-21G) of 79.7% and a viability at 10 µM [8] of 85.7%. The viability at 10 µM [9, 25] was 84.1%, the viability at 10 µM [9, 26] was 46.2% and the viability at 10 µM (BxPC-3) was 74%. It also gave a viability at 10 µM [10] of 91.7%, a viability at 10 µM [11, 27] of 104% and a viability at 10 µM [11, 28] of 56.5%. It also gave a viability at 10 µM ([12]; read-out: The results of antibiotic drug inhibiting cancer cell lines (cell viability analysis), LoVo, repeated experiment) of 93.5%, a viability at 10 µM ([12]; read-out: cell viability (survival rate), LoVo, drug 10 μM, 72 hours, WST-1, OD450 nm) of 92.3% and a viability at 10 µM [13, 29] of 76.4%. For the same compound, the viability at 10 µM [13, 30] was 63.7%, the viability at 10 µM [14, 31] was 69% and the viability at 10 µM (U-2OS) was 87.2%. It also gave a viability at 10 µM [15, 32] of 98.4%, a viability at 10 µM [15, 33] of 99.1% and a viability at 10 µM (T24) of 86.3%. The viability at 10 µM (AsPC-1) was 78.2%, the viability at 10 µM [16, 34] was 98.6% and the viability at 10 µM [16, 35] was 58.6%. It also gave a viability at 10 µM (NIH: OVCAR-3) of 104%, a viability at 10 µM [17, 36] of 98.2% and a viability at 10 µM [17, 37] of 77.7%. The “inhibition effect on different cancer cell lines” value (cancer cell lines) was “significant inhibition effect” and the viability at 10 µM [18] was 93.3%.

Compound `CO[C@H]1/C=C/O[C@@]2(C)Oc3c(C)c(O)c4c(O)c(c5c(nc6cc(C)ccn65)c4c3C2=O)NC(=O)/C(C)=C\C=C\[C@H](C)[C@H](O)[C@@H](C)[C@@H](O)[C@@H](C)[C@H](OC(C)=O)[C@@H]1C` [Rifaximin (Xifaxan), Rifaximin] has a viability at 10 µM [1] of 69.8%, a viability at 10 µM [2, 19] of 115% and a viability at 10 µM [2, 20] of 102%. It also gave a viability at 10 µM [3] of 100%, a viability at 10 µM [4] of 87.6% and a viability at 10 µM [5, 21] of 108%. The viability at 10 µM [5, 22] was 35.1%, the viability at 10 µM [6, 23] was 114% and the viability at 10 µM [6, 24] was 61.3%. The viability at 10 µM [7] was 110%, the viability at 10 µM (TOV-21G) was 88% and the viability at 10 µM [8] was 81.8%. For the same compound, the viability at 10 µM [9, 25] was 89.9%, the viability at 10 µM [9, 26] was 40.1% and the viability at 10 µM (BxPC-3) was 89%. For the same compound, the viability at 10 µM [10] was 107%, the viability at 10 µM [11, 27] was 106% and the viability at 10 µM [11, 28] was 54%. The viability at 10 µM [13, 29] was 98.1%, the viability at 10 µM [13, 30] was 93.2% and the viability at 10 µM [14, 31] was 69.5%. For the same compound, the viability at 10 µM ([14]; read-out: cell viability (survival rate), H1650, drug 10 μM, 72 hours, WST-1, OD450 nm) was 82.4%, the viability at 10 µM (U-2OS) was 72.9% and the viability at 10 µM [15, 32] was 95.3%. For the same compound, the viability at 10 µM [15, 33] was 67.1%, the viability at 10 µM (T24) was 96.8% and the viability at 10 µM (AsPC-1) was 71.2%. The viability at 10 µM [16, 34] was 93.5%, the viability at 10 µM [16, 35] was 52.7% and the viability at 10 µM (NIH: OVCAR-3) was 100%. For the same compound, the viability at 10 µM [17, 36] was 98.2%, the viability at 10 µM [17, 37] was 59.5% and the “inhibition effect on different cancer cell lines” value (cancer cell lines) was “significant inhibition effect”. It also gave a viability at 10 µM [18] of 98.7%.
